Source: patent publication US20250123267A1, “INHIBITORS OF MICROTUBULE POLYGLUTAMYLATION IN MITOSIS FOR USE AS A MEDICAMENT” (FUNDACIÓ CENTRE DE REGULACIÓ GENÒMICA, priority 2021, published 2025)

Legend:
Type in all cases: in vivo, Danio rerio
zebrafish embryos [1] = test: Chromosome segregation in blastula stage zebrafish embryos (live and fixed imaging)
Description: (§1) Morpholino antisense oligonucleotides were designed and purchased from Gene Tools, LLC. To inhibit ttll11 we used a blocking translation SEQ ID NO: 22 MO ([…]) and a standard control SEQ ID NO: 23 MO ([…]) as a negative control. We injected 2.8 ng of morpholino into one-cell stage embryos.
Zebrafish embryos at the sphere stage (2.5-4 hpf) were dechorionated and incubated overnight at RT shacking in the microtubule fixative solution (20). The MT-fixative was discarded, and the embryos were put in methanol at −20° C. overnight. After fixation was completed zebrafish embryos were transferred in a clean tube and washed 3 times during 5 min with tergitol at room temperature for rehydration. Embryos were then moved to a well of a 96-well plate and an overnight wash with the anti-autofluorescence buffer (PBS 1×, 100 mM NaBH4) was performed at RT gently shacking. Buffer in the well was changed with TBS 1× for 5 extensive washes.
Embryos underwent the blocking step with TBS 1× with 2% BSA for 30 minutes RT gently shacking. Anti-polyE (1.1 μg/ml, home-made) and -β-tubulin (clone E7; Hybridoma Bank at University of Iowa) primary antibodies were added both at 1:200 dilution and left ON at 4° C. gently shacking. […]
Fixed embryos were imaged in glass bottom Mattek dishes using a 63× oil-immersion 1.4 NA objective on a TCS SP5 inverted Leica confocal microscope. Laser intensity used changed through experiments according to the tubulin levels detected.
For zfTTLL11 localization experiments zebrafish eggs were fertilized, collected and microinjected with zfTTLL11 mRNA with a micromanipulator (M3301R, WPI (World precision instruments). The quantity injected are relative to the ones specified in “Morpholinos, mRNA synthesis and microinjection” section, according to de experiment. Embryos at sphere stage were manually dechorionated and moved in a tube containing low melting agarose at 42° C. diluted in TBS 1× and immediately in a Mattek dish with 7 mm diameter glass bottom and oriented with epithelial layer cells toward the glass slide before the agarose solidified. […]

zebrafish embryos [2] = test: Morphological zebrafish analysis at 36 hpf after morpholino injection
Description: as §1
(§2) All capped mRNAs were synthesized using mMessage mMachine SP6 (Ambion, AM1340M). For the rescue experiments, […] of ttll11 mRNA was injected together with the indicated MO. […] of E466G mRNA (ttll11 mutated version) was injected together with the indicated MO as a negative control of the rescue experiments. GFP-Ttll11 mRNA was injected into one-cell stage embryos to visualize protein localization.
Zebrafish embryos at 36 hpf were anaesthetized with tricaine methane sulfonate (MS-222, Sigma Aldrich) The morphological phenotype was evaluated on site with an Olympus SZX16 scope equipped with an Olympus DP73 camera. Representative images were analyzed with ImageJ.

zebrafish embryos [3] = test: Embryonic lethality of morpholino injected zebrafish embryos; details: first 4 hours of development
Description: as §1, §2

[4] = 36 hpf, injected at one-cell stage

For “MO-1: blocking translation morpholino against zebrafish ttll11, SEQ ID NO: 22 (CGGCTGATTTGTTATCTCATCTAGG) (all phosphorodiamidate morpholino (PMO))”, the “embryos with at least one anaphase cell with a lagging chromosome” value (zebrafish embryos [1]; blastula stage, 4D time-lapse imaging) was “Most”, the “chromosome segregation fidelity in fixed embryos” value (zebrafish embryos [1]; fixed embryos, anaphase cells with lagging chromosomes) was “compromised” and the cells with micronuclei (zebrafish embryos [1]; injected embryos) was “many cells with micronuclei”. The “phenotype Frequency Mild (%)” value (zebrafish embryos [2]; [4]) was 28.6%, the “phenotype Frequency Normal (%)” value (zebrafish embryos [2]; [4]) was 14.3% and the “phenotype Frequency Severe (%)” value (zebrafish embryos [2]; [4]) was 57.1%. The “embryos with developmental defects” value (zebrafish embryos [2]; injected embryos, mild tilted tails to gross abnormalities) was 60% and the embryonic lethality (zebrafish embryos [3]) was “increase of embryonic lethality”.
